By EC50 is commonly meant the concentration that produces a half-maximal response. What is called IC50 is the concentration at which inhibition is half-maximal.

The nature of data set [1]: pKa measurement (Sirius T3, UV-metric). The format is physicochemical. On the procedure: calculated, both in terms of pEC50 values. MIC (minimum inhibitory concentration) values are defined as the lowest concentration tested at which maximal inhibition is reached.
THP-1 cells were differentiated in 96-well plates with PMA as described above. Following differentiation the cells were treated for 30 min with dose-response curves of test compounds in presence of 100 nM LysoTracker Red DND-99 (Thermo Fisher) and 5 µg/ml Hoechst 33342. Next cells were washed 3 times with Hanks Buffered Saline Solution (Gibco) and imaged on a Perkin Elmer Operetta system. An image analysis algorithm to measure mean Lysotracker Red DND-99 intensity per cell was developed in Columbus. […]
To measure the pKa of DDD806905, a fast UV-metric method was performed using a Sirius T3 instrument (Sirius Analytical, U.K.). The calculation of the pKa was determined using the Sirius T3 refine software (Sirius Analytical, U.K.). In brief, the UV-metric pKa method is based on measuring pH during an acid-base titration and monitoring UV absorbance shift. […] The appearance of precipitate was monitored throughout the experiment by a turbidity sensing device. […] The pKas of DDD806905 was determined at the pH where there was maximal change in UV absorbance with respect to pH. […]
LogD7.4 values were quantified using a Sirius T3 instrument (Sirius Analytical, U.K.). […]

The test system of data set [2] is L. donovani intracellular amastigote. The data set is described as follows: Leishmania intracellular amastigote assay. The format is cell-based. The method, then:
(§1) carried out as described above using 5%, 10% and 20% FBS in the media. To examine the effect of the methionine concentration on the potency of DDD806905 parasites were grown in the presence of drug and in the presence (or absence) of 20-fold excess methionine (0.3 g/l). IC50 curve fitting was undertaken in GraFit version 6.0 (Erithacus Software) using a four-parameter logistic dose-response curve (equation 6), with s the slope.
(§2) Leishmania Axenic Amastigote Assay
(§3) The Leishmania axenic amastigote assay was performed using the method published in Nühs et al 15.
(§4) Leishmania Intracellular Amastigote Assay
(§5) The intramacrophage Leishmania assay was performed using a modified version of the method described in De Rycker et al 16. […]
amphotericin B was included. Controls were as follows: columns 11 and 12: DMSO, columns 23 and 24: amphotericin B (final concentration 2 µM). 350 nl of compound was pre-dispensed into 384-well sterile intermediary plates. To the intermediary plates, 35 µl of THP-1 media was added and plates were shaken for >5 min to ensure complete mixing. THP-1 cells (8,000 per well, 50 µl) were plated into black clear-bottom 384-well plates (Corning) in presence of 20 nM phorbol 12-myristate 13- […]
in a humidified incubator for 75 h. The cells were then washed with 450 µl sterile phosphate buffered saline (PBS) supplemented with 1 mM CaCl2, 0.5 mM MgCl2, 0.1% (w/v) bovine serum albumin (PBS-A) and amastigotes were added to all wells at a multiplicity of infection of 5 (40,000 amastigotes per well). After 40 min at room temperature, plates were returned to the incubator.
Amastigotes were incubated in the presence of THP-1 macrophages for 16 h. Any remaining extracellular amastigotes were subsequently removed by washing with PBS-A followed by addition of 25 µl of the compound pre-dilutions using an Ipette-pro pipetting station (FluidX). The final dilution of each compound was 200-fold. […] For each well, i) THP-1 cell count (cytotoxicity readout) and ii) average number of amastigotes per cell (potency readout) were […]
calculated, both in terms of pEC50 values. […]

Data set [3] concerns L. donovani promastigotes. As to the kind of experiment: Leishmania promastigote viability assay. The format is cell-based, Leishmania donovani. Particulars: Leishmania donovani. On the procedure:
After suitable sample preparation, the
In vivo Leishmaniasis Animal Model […]
administered twice daily over the same interval.
Parasite load is expressed in Leishman-
Knock-out and overexpressor generation
Leishmania Promastigote Assay
Serum shift experiments were […]
as §1, §2, §3, §4, §5
amphotericin B was included. Controls were as follows: columns 11 and 12: DMSO, columns 23 and 24: amphotericin B (final concentration 2 µM). 350 nl of compound was pre-dispensed into 384-well sterile intermediary plates. To the intermediary plates, 35 µl of THP-1 media was added and plates were shaken for >5 min to ensure complete mixing. THP-1 cells (8,000 per well, 50 µl) were plated into black clear-bottom 384-well plates (Corning) in presence of 20 nM phorbol 12-myristate 13-

A short description of data set [4]: THP-1 cytotoxicity readout of intramacrophage assay. The format is cell-based. As to conditions: human, Leishmania infected, PMA-differentiated THP-1 cells; read-out: THP-1 EC50 (toxicity). On the procedure:
as §1, §2, §3, §4, §5
amphotericin B was included. Controls were as follows: columns 11 and 12: DMSO, columns 23 and 24: amphotericin B (final concentration 2 µM). 350 nl of compound was pre-dispensed into 384-well sterile intermediary plates. To the intermediary plates, 35 µl of THP-1 media was added and plates were shaken for >5 min to ensure complete mixing. […]
Amastigotes were incubated in the presence of THP-1 macrophages for 16 h. […] For each well, i) THP-1 cell count (cytotoxicity readout) and ii) average number of amastigotes per cell (potency readout) were […]

Data set [5] has as its system mitochondrial protein synthesis in H9C2 cells. As to the kind of experiment: Mitochondrial protein synthesis assay (COX-1/SDH-A In-Cell ELISA). As to conditions: COX-1/SDH-A ratio, average of three experiments. In kind it is cell-based.

Like-named read-outs stand apart in the source and are kept apart here.

For `Cl.Cl.O=c1nc(NCCCNCc2cc3c(Cl)cc(Cl)cc3[nH]2)[nH]c2ccccc12` [DDD806905, 2-((3-(((4,6-dichloro-1H-indol-2-yl)methyl)amino)propyl)amino)quinazolin-4(1H)-one dihydrochloride], the “compound present in un-ionized state” value in data set [1] (pH 5.6) is reported as around 0%; in data set [1] (pH 7.3), 0.01%. Further, the EC50 in data set [2] (in THP-1 macrophages, read-out: intracellular amastigote EC50) is 2.9 µM; in data set [2] (representative curve, n=8 technical replicates, read-out: intracellular amastigote EC50, representative potency determination), 2.8 µM; in data set [3] (10% serum, read-out: promastigote EC50) it was 0.27 µM; in data set [3] (Supplementary Table 1, read-out: Leishmania Promastigote EC50), 0.44 µM; in data set [3] (absence of excess methionine, read-out: promastigote EC50) it was 0.46 µM; in data set [3] (extrapolated to 100% serum, read-out: predicted promastigote EC50), 1.75 µM. Besides, the concentration giving a half-maximal response (EC50) was 0.12 µM in data set [3] (extrapolated to no serum, read-out: predicted promastigote EC50) and 1.9 µM in data set [3] (presence of excess methionine (2 mM), read-out: promastigote EC50). For the same compound, the MIC in data set [2] (intracellular assay, lowest concentration with maximal inhibition, read-out: MIC (minimum inhibitory concentration)) turned out to be 4.3 µM. In data set [4], the EC50 at 96 h is 10 µM. The IC50 in data set [5] (H9C2 cells) is 1.7 µM; in data set [5] (Rattus norvegicus, H9c2, H9C2 cells), 1.68 µM.

Values taken from PMC5663395, “Chemical Validation of Methionyl-tRNA Synthetase as a Druggable Target in Leishmania donovani” (ACS Infectious Diseases, 2017).
